Source: patent publication US10974064B2, “Optogenetic control of behavioral state” (The Board of Trustees of the Leland Stanford Junior …, priority 2013, dated 2021)

Assays:
[1] = test system: adBNST neurons; experiment: Calcium imaging (OGB-1) of persistent activity in adBNST slice after electrical stimulation; format: cell-based, mice; settings: 100 μM APV, then 10 μM NBQX added; N (all cells) 277 for APV, 279 for NBQX + APV
[2] = test system: adBNST neurons; experiment: Ex vivo slice voltage-clamp recording of light-evoked EPSCs and IPSCs (ChR2 in BLA afferents); format: cell-based, mice; settings: bath application 100 μM picrotoxin; n=4
Experimental: For slice physiology in combination with optogenetics, 3-4 week old male wild-type mice were injected with AAV-CaMKIIa::ChR2-eYFP into the BLA, or male Drd1a-Cre mice were injected with AAV-EFla::DIO-ChR2(H134R)-eYFP into the ovBNST. After a month, acute 300 μm coronal slices were obtained by transcardially perfusing ice-cold sucrose cutting solution (in mM; 11 D-glucose, 234 sucrose, 2.5 KCl, 1.25 NaH2PO4, 10 MgSO4, 0.5 CaCl2, 26 NaHCO3) and slicing in the same solution using a vibratome (VT1000S; Leica, Buffalo Grove, Ill., USA). Slices were recovered in oxygenated artificial cerebrospinal fluid (aCSF; in mM, 123 NaCl, 26 NaHCO3, 3 KCl, 1.25 NaH2PO4, 1 MgCl2, 2 CaCl2, and 11 glucose) at 32° C. for one hour. […]
For the blue light delivery, light was emitted from a 300 W broad-wavelength xenon lamp source (DG-4, Sutter Instruments, Novato, Calif., USA), band-pass filtered at 470±20 nm (Semrock; Rochester, N.Y., USA), passed through additional neutral density filters (ThorLabs; Newton, N.J., USA) and coupled to the fluorescence port of the microscope. […]
Voltage-clamp recordings were made at both −70 mV to isolate EPSCs, and at 0 mV to isolate IPSCs. […] Currents were filtered at 2 kHz, digitized at 50 kHz, and recorded to disk using pClamp10 software (Molecular Devices). […]

Molecule	N (number of cells activated after stimulation) [1]	light-evoked IPSCs [2]
NC(CCCP(=O)(O)O)C(=O)O (centres unmarked) [APV, 2-amino-5-phosphonopentanoic acid]	61	–
picrotoxin	–	blocked
